We go through 22 molecules from US11497752B2, “Compounds and uses thereof” (Foghorn Therapeutics Inc., priority 2018, dated 2022).

Bounds are passed on as bounds.

For orientation: IC50 means the concentration that gives 50% inhibition. Read a high IC50 as lower potency.

The target of test [1] is BRG-1 (Homo sapiens, UniProt P51532). Briefly: ATPase catalytic activity of BRG-1 (ADP-Glo in vitro biochemical assay). The conditions noted are these: for BRG1 Max % Inhibition: Table 6.
Test [2] deals with BRM (Homo sapiens, UniProt P51531). Briefly: ATPase catalytic activity of BRM (ADP-Glo in vitro biochemical assay). Particulars: for BRM Max % Inhibition: Table 6. Background: In ADP-Glo the light output rises with the ADP produced.
Chain of BRM (P51531 whole entry): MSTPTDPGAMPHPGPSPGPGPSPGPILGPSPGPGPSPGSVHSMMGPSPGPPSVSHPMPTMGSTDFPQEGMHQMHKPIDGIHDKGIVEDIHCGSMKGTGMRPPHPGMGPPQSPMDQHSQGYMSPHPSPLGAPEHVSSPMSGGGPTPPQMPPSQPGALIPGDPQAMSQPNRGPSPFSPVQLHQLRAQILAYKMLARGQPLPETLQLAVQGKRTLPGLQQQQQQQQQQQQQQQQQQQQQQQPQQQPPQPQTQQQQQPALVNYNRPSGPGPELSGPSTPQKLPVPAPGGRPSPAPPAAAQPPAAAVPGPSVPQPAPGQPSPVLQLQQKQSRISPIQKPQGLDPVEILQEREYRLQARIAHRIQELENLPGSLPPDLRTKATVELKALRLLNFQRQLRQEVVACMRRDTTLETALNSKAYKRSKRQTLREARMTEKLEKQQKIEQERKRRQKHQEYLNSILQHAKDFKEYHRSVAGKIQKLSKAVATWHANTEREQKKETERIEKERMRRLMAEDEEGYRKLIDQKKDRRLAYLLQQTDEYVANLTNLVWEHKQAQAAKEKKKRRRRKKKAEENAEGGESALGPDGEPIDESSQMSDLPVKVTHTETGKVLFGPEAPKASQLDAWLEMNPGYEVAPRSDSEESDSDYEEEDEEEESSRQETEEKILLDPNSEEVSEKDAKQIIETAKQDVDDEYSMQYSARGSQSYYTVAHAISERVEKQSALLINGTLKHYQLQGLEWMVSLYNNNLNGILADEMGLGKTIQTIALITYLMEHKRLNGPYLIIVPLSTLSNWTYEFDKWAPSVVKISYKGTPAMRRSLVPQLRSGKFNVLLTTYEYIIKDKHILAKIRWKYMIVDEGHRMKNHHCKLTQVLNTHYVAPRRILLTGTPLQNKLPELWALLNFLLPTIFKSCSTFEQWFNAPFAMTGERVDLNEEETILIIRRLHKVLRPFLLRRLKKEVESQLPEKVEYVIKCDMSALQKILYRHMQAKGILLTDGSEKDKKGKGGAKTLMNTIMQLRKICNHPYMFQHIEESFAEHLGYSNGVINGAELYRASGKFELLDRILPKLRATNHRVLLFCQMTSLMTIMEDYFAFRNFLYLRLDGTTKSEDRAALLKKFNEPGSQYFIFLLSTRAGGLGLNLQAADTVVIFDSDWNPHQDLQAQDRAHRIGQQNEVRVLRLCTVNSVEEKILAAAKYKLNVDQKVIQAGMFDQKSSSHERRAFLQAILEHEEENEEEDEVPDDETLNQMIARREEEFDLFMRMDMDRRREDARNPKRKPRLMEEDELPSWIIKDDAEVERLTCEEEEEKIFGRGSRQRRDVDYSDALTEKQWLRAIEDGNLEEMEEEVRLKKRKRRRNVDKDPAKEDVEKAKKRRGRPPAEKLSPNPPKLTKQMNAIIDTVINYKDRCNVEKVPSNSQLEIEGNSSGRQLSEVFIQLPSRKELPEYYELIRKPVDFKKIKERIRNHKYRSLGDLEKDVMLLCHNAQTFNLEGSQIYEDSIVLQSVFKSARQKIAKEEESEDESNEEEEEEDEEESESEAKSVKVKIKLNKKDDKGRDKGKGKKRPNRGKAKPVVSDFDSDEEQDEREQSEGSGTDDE

Chain of BRG-1 (P51532 whole entry): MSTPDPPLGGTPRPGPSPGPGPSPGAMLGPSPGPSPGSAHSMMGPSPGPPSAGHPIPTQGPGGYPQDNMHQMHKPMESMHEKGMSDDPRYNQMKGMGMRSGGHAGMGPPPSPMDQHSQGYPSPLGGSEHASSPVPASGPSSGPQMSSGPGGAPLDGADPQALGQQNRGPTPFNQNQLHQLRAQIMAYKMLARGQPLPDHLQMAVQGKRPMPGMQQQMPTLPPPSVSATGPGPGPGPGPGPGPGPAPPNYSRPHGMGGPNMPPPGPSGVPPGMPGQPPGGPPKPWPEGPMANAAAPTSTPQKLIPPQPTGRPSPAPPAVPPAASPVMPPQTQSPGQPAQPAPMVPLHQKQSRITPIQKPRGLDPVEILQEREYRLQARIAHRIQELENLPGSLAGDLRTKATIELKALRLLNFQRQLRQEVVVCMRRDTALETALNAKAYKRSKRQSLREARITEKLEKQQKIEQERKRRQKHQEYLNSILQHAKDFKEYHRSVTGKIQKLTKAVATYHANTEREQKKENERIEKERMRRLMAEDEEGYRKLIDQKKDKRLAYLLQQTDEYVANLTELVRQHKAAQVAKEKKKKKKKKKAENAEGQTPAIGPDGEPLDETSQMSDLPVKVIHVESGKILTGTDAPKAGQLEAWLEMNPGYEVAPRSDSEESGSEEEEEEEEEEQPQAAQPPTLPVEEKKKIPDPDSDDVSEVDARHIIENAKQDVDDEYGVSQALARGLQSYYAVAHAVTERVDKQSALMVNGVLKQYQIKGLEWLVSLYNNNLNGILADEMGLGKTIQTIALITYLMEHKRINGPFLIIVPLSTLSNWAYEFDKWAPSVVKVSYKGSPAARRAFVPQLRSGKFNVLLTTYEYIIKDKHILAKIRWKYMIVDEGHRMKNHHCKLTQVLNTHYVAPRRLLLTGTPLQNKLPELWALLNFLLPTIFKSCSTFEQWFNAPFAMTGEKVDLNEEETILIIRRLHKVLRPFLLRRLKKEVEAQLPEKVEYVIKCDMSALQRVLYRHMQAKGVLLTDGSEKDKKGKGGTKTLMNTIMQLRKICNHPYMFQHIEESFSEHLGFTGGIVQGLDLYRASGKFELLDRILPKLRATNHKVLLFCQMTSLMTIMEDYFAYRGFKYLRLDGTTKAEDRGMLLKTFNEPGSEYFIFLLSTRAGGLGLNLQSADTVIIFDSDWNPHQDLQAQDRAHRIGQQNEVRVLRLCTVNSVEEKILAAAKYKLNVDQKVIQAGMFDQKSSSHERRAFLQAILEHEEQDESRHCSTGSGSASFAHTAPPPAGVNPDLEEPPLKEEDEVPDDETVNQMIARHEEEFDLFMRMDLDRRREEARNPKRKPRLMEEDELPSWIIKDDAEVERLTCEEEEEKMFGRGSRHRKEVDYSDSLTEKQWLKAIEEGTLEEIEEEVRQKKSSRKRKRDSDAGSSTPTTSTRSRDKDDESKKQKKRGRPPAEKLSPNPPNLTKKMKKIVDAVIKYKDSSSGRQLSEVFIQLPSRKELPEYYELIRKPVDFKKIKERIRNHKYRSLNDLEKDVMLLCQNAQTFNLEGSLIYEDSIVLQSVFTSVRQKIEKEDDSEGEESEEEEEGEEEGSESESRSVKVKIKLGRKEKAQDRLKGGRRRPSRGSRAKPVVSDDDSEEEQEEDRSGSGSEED

As for `Nc1ccc(C(=O)NCC(=O)Nc2nc(-c3cccc(-c4ccnc(N5CCCCS5(=O)=O)c4)c3)cs2)cc1` [Compound 203, 4-amino-N-[2-[[4-[3-[2-(1,1-dioxothiazinan-2-yl)-4-pyridyl]phenyl]thiazol-2-yl]amino]-2-oxo-ethyl]benzamide], in test [1], the IC50 was 100 to 1000 nM and the “BRG1 Max % Inhibition” value is reported as over 80%. In test [2], the IC50 is 100 to 1000 nM and the “BRM Max % Inhibition” value was over 80%.

For `CN1CCN(c2cccc(-c3csc(NC(=O)CNC(=O)c4ccc(N)cc4)n3)c2)CC1=O` [Compound 204, 4-amino-N-[2-[[4-[3-(4-methyl-3-oxo-piperazin-1-yl)phenyl]thiazol-2-yl]amino]-2-oxo-ethyl]benzamide], in test [1], the IC50 lay within 100 to 1000 nM and the “BRG1 Max % Inhibition” value is recorded as over 70%. In test [2], the IC50 was in the range of 100 to 1000 nM and the “BRM Max % Inhibition” value was over 80%.

In the case of `CNC(=O)Cc1cc(-c2cccc(-c3csc(NC(=O)CNC(=O)c4ccc(N)cc4)n3)c2)ccn1` [Compound 205, 4-amino-N-[2-[[4-[3-[2-[2-(methylamino)-2-oxo-ethyl]-4-pyridyl]phenyl]thiazol-2-yl]amino]-2-oxo-ethyl]benzamide], in test [1], the IC50 was under 100 nM and the “BRG1 Max % Inhibition” value was over 95%. In test [2], the IC50 is under 100 nM and the “BRM Max % Inhibition” value is over 95%.

As to `CN(C)C(=O)CN(C)c1cc(-c2cccc(-c3csc(NC(=O)CNC(=O)c4ccc(N)cc4)n3)c2)ccn1` [Compound 206, 4-amino-N-[2-[[4-[3-[2-[[2-(dimethylamino)-2-oxo-ethyl]-methyl-amino]-4-pyridyl]phenyl]thiazol-2-yl]amino]-2-oxo-ethyl]benzamide], in test [1], the IC50 lay in the range of 100 to 1000 nM and the “BRG1 Max % Inhibition” value was over 95%. Moreover, in test [2], the half-maximal inhibitory concentration (IC50) was 100 to 1000 nM and the “BRM Max % Inhibition” value was over 95%.

For the molecule `CC(C)c1cc(-c2cccc(-c3csc(NC(=O)CNC(=O)c4ccc(N)cc4)n3)c2)ccn1` [Compound 207, 4-amino-N-[2-[[4-[3-(2-isopropyl-4-pyridyl)phenyl]thiazol-2-yl]amino]-2-oxo-ethyl]benzamide], in test [1], the IC50 was under 100 nM and the “BRG1 Max % Inhibition” value is given as over 95%. In test [2], the IC50 was under 100 nM and the “BRM Max % Inhibition” value is reported as over 95%.

In the case of `Nc1ccc(C(=O)NCC(=O)Nc2nc(-c3cncc(-c4ccncc4)c3)cs2)cc1` [Compound 208, 4-amino-N-[2-oxo-2-[[4-[5-(4-pyridyl)-3-pyridyl]thiazol-2-yl]amino]ethyl]benzamide], in test [1], the IC50 lay in the range of 100 to 1000 nM and the “BRG1 Max % Inhibition” value is listed as over 80%. Further, in test [2], the IC50 fell in the range of 100 to 1000 nM and the “BRM Max % Inhibition” value is on record as over 90%.

Turning to `COC(=O)C(C)(C)n1ccc(-c2cccc(-c3csc(NC(=O)CNC(=O)c4ccc(N)cc4)n3)c2)n1` [Compound 209, methyl 2-[3-[3-[2-[[2-[(4-aminobenzoyl)amino]acetyl]amino]thiazol-4-yl]phenyl]pyrazol-1-yl]-2-methyl-propanoate], in test [1], the IC50 is under 100 nM and the “BRG1 Max % Inhibition” value is reported as over 95%. In test [2], the IC50 is under 100 nM and the “BRM Max % Inhibition” value is over 95%.

On to `Nc1ccc(C(=O)NCC(=O)Nc2nc(-c3cccc(-c4ccn(CC(=O)O)n4)c3)cs2)cc1` [Compound 210, 2-[3-[3-[2-[[2-[(4-aminobenzoyl)amino]acetyl]amino]thiazol-4-yl]phenyl]pyrazol-1-yl]acetic acid], for which, in test [1], the IC50 lay within 100 to 1000 nM and the “BRG1 Max % Inhibition” value is recorded as over 80%. Moreover, in test [2], the IC50 lay in the range of 100 to 1000 nM and the “BRM Max % Inhibition” value is reported as over 95%.

Regarding `CC(C)(N)c1cc(-c2cccc(-c3csc(NC(=O)CNC(=O)c4ccc(N)cc4)n3)c2)ccn1` [Compound 211, 4-amino-N-[2-[[4-[3-[2-(1-amino-1-methyl-ethyl)-4-pyridyl]phenyl]thiazol-2-yl]amino]-2-oxo-ethyl]benzamide], in test [1], the IC50 fell in the range of 100 to 1000 nM and the “BRG1 Max % Inhibition” value is over 90%. Further, in test [2], the IC50 lay in the range of 100 to 1000 nM and the “BRM Max % Inhibition” value is over 95%.

`CC(C)(C(=O)O)n1ccc(-c2cccc(-c3csc(NC(=O)CNC(=O)c4ccc(N)cc4)n3)c2)n1` [Compound 212, 2-[3-[3-[2-[[2-[(4-aminobenzoyl)amino]acetyl]amino]thiazol-4-yl]phenyl]pyrazol-1-yl]-2-methyl-propanoic acid]: in test [1], the IC50 is 100 to 1000 nM and the “BRG1 Max % Inhibition” value is over 95%. Also, in test [2], the half-maximal inhibitory concentration (IC50) fell in the range of 100 to 1000 nM and the “BRM Max % Inhibition” value is reported as over 95%.

For the molecule `CNC(=O)C(C)(C)n1ccc(-c2cccc(-c3csc(NC(=O)CNC(=O)c4ccc(N)cc4)n3)c2)n1` [Compound 213, 4-amino-N-[2-[[4-[3-[1-[1,1-dimethyl-2-(methylamino)-2-oxo-ethyl]pyrazol-3-yl]phenyl]thiazol-2-yl]amino]-2-oxo-ethyl]benzamide], in test [1], the IC50 is under 100 nM and the “BRG1 Max % Inhibition” value is listed as over 95%. In test [2], the half-maximal inhibitory concentration (IC50) was under 100 nM and the “BRM Max % Inhibition” value is recorded as over 95%.

In the case of `CSCC[C@H](NC(=O)c1ccc(N)cc1)C(=O)Nc1nc(-c2cccc(-c3ccnc(C)c3)c2)cs1` [Compound 214, (S)-4-amino-N-(1-((4-(3-(2-methylpyridin-4-yl)phenyl)thiazol-2-yl)amino)-4-(methylthio)-1-oxobutan-2-yl)benzamide], in test [1], the 50% inhibitory concentration (IC50) is under 100 nM and the “BRG1 Max % Inhibition” value is recorded as over 95%. Further, in test [2], the IC50 is under 100 nM and the “BRM Max % Inhibition” value is listed as over 95%.

Turning to `Cc1nnc(C(=O)NC(C)(C)c2cc(-c3cccc(-c4csc(NC(=O)CNC(=O)c5ccc(N)cc5)n4)c3)ccn2)o1` [Compound 215, N-[1-[4-[3-[2-[[2-[(4-aminobenzoyl)amino]acetyl]amino]thiazol-4-yl]phenyl]-2-pyridyl]-1-methyl-ethyl]-5-methyl-1,3,4-oxadiazole-2-carboxamide], in test [1], the IC50 was 100 to 1000 nM and the “BRG1 Max % Inhibition” value is over 90%. Also, in test [2], the IC50 lay within 100 to 1000 nM and the “BRM Max % Inhibition” value is over 90%.

For `CNC(=O)Cn1ccc(-c2cccc(-c3csc(NC(=O)CNC(=O)c4ccc(N)cc4)n3)c2)n1` [Compound 216, 4-amino-N-[2-[[4-[3-[1-[2-(methylamino)-2-oxo-ethyl]pyrazol-3-yl]phenyl]thiazol-2-yl]amino]-2-oxo-ethyl]benzamide], in test [1], the IC50 was in the range of 100 to 1000 nM and the “BRG1 Max % Inhibition” value is listed as over 95%. Moreover, in test [2], the IC50 was under 100 nM and the “BRM Max % Inhibition” value is over 90%.

With `Nc1ccc(C(=O)NCC(=O)Nc2nc(-c3ccnc(-c4ccncc4)c3)cs2)cc1` [Compound 217, 4-amino-N-[2-oxo-2-[[4-[2-(4-pyridyl)-4-pyridyl]thiazol-2-yl]amino]ethyl]benzamide], in test [1], the IC50 was under 100 nM and the “BRG1 Max % Inhibition” value is over 90%. Moreover, in test [2], the IC50 was under 100 nM and the “BRM Max % Inhibition” value is reported as over 90%.

In the case of `Nc1ccc(C(=O)NCC(=O)Nc2nc(-c3cccc(CCc4ccncc4)c3)cs2)cc1` [Compound 218, 4-amino-N-[2-oxo-2-[[4-[3-[2-(4-pyridyl)ethyl]phenyl]thiazol-2-yl]amino]ethyl]benzamide], in test [1], the IC50 lay in the range of 100 to 1000 nM and the “BRG1 Max % Inhibition” value is given as over 90%. In test [2], the IC50 was under 100 nM and the “BRM Max % Inhibition” value is given as over 95%.

Regarding `Nc1ccc(C(=O)NCC(=O)Nc2nc(-c3cccc(-c4ccnc(C5(C(=O)O)CC5)c4)c3)cs2)cc1` [Compound 219, 1-[4-[3-[2-[[2-[(4-aminobenzoyl)amino]acetyl]amino]thiazol-4-yl]phenyl]-2-pyridyl]cyclopropanecarboxylic acid], in test [1], the IC50 is under 100 nM and the “BRG1 Max % Inhibition” value is over 95%. In addition, in test [2], the IC50 was under 100 nM and the “BRM Max % Inhibition” value was over 95%.

In the case of `Cn1cnc(-c2cccc(-c3csc(NC(=O)CNC(=O)c4ccc(N)cc4)n3)c2)c1` [Compound 220, 4-amino-N-[2-[[4-[3-(1-methylimidazol-4-yl)phenyl]thiazol-2-yl]amino]-2-oxo-ethyl]benzamide], in test [1], the IC50 is 1000 to 10000 nM and the “BRG1 Max % Inhibition” value was over 80%. For the same molecule, in test [2], the IC50 was 100 to 1000 nM and the “BRM Max % Inhibition” value is listed as over 95%.

As for `Nc1ccc(C(=O)NCC(=O)Nc2nc(-c3cccc(-c4ccnc(N5CCCC(N)C5)c4)c3)cs2)cc1` (stereo not shown) [Compound 221, 4-amino-N-[2-[[4-[3-[2-(3-amino-1-piperidyl)-4-pyridyl]phenyl]thiazol-2-yl]amino]-2-oxo-ethyl]benzamide], in test [1], the IC50 lay in the range of 100 to 1000 nM and the “BRG1 Max % Inhibition” value is over 80%. In test [2], the half-maximal inhibitory concentration (IC50) fell in the range of 100 to 1000 nM and the “BRM Max % Inhibition” value was over 95%.

`Cc1nc(-c2cccc(-c3csc(NC(=O)CNC(=O)c4ccc(N)cc4)n3)c2)cn1C` [Compound 222, 4-amino-N-[2-[[4-[3-(1,2-dimethylimidazol-4-yl)phenyl]thiazol-2-yl]amino]-2-oxo-ethyl]benzamide]: in test [1], the IC50 was in the range of 100 to 1000 nM and the “BRG1 Max % Inhibition” value is reported as over 80%. In test [2], the IC50 fell in the range of 100 to 1000 nM and the “BRM Max % Inhibition” value is listed as over 95%.

Turning to `CNC(=O)C1(c2cc(-c3cccc(-c4csc(NC(=O)CNC(=O)c5ccc(N)cc5)n4)c3)ccn2)CC1` [Compound 223, 4-amino-N-[2-[[4-[3-[2-[1-(methylcarbamoyl)cyclopropyl]-4-pyridyl]phenyl]thiazol-2-yl]amino]-2-oxo-ethyl]benzamide], in test [1], the IC50 is under 100 nM and the “BRG1 Max % Inhibition” value is reported as over 90%. In test [2], the IC50 is under 100 nM and the “BRM Max % Inhibition” value is given as over 95%.

Turning to `Nc1ccc(C(=O)NCC(=O)Nc2nc(-c3cccc(-c4ccnc(CC(=O)O)c4)c3)cs2)cc1` [Compound 224, [2-[4-[3-[2-[[2-[(4-aminobenzoyl)amino]acetyl]amino]thiazol-4-yl]phenyl]-2-pyridyl]acetyl]oxysodium], in test [1], the IC50 was under 100 nM and the “BRG1 Max % Inhibition” value is given as over 90%. Also, in test [2], the concentration for half-maximal inhibition (IC50) was under 100 nM and the “BRM Max % Inhibition” value is listed as over 95%.
